# Measured values reported in ChEMBL document CHEMBL1201862, “PubChem BioAssay data set” (2004).
#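 Briefly, cells in 96-well plates were exposed to five compound concentrations for 48 h, and endpoints were estimated by linear interpolation. At the GI50, growth is halved.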 Active and inactive are the calls of the source. No stated cut-off is given here; in the data, active = GI50 up to about 1.1 µM and inactive = higher.
# What was measured:
# Assay in all cases: NCI tumour cell line growth inhibition, 48 h
# 786-0 = tested on: 786-0
# A498 = tested on: A498
# A549 = tested on: A549
# ACHN = tested on: ACHN
# BT-549 = tested on: BT-549
# CAKI-1 = tested on: CAKI-1
# CCRF-CEM = tested on: CCRF-CEM
# COLO 205 = tested on: COLO 205
# DLD-1 = tested on: DLD-1
# DMS-114 = tested on: DMS-114
# DMS-273 = tested on: DMS-273
# DU-145 = tested on: DU-145
# EKVX = tested on: EKVX
# HCC 2998 = tested on: HCC 2998
# HCT-116 = tested on: HCT-116
# HCT-15 = tested on: HCT-15
# HL-60 = tested on: HL-60
# HOP-18 = tested on: HOP-18
# HOP-62 = tested on: HOP-62
# HOP-92 = tested on: HOP-92
# HT-29 = tested on: HT-29
# Hs-578T = tested on: Hs-578T
# IGROV-1 = tested on: IGROV-1
# K562 = tested on: K562
# KM-20L2 = tested on: KM-20L2
# KM12 = tested on: KM12
# LOX IMVI = tested on: LOX IMVI
# LXFL 529 = tested on: LXFL 529
# M14 = tested on: M14
# M19-MEL = tested on: M19-MEL
# MCF7 = tested on: MCF7
# MDA-MB-231 = tested on: MDA-MB-231
# MDA-MB-435 = tested on: MDA-MB-435
# MDA-N = tested on: MDA-N
# MOLT-4 = tested on: MOLT-4
# Malme-3M = tested on: Malme-3M
# NCI-H226 = tested on: NCI-H226
# NCI-H23 = tested on: NCI-H23
# NCI-H460 = tested on: NCI-H460
# NCI-H522 = tested on: NCI-H522
# NCI/ADR-RES = tested on: NCI/ADR-RES
# OVCAR-3 = tested on: OVCAR-3
# OVCAR-4 = tested on: OVCAR-4
# OVCAR-5 = tested on: OVCAR-5
# OVCAR-8 = tested on: OVCAR-8
# PC-3 = tested on: PC-3
# RPMI-8226 = tested on: RPMI-8226
# RXF 393 = tested on: RXF 393
# RXF 631 = tested on: RXF 631
# SF-268 = tested on: SF-268
# SF-295 = tested on: SF-295
# SF-539 = tested on: SF-539
# SK-MEL-28 = tested on: SK-MEL-28
# SK-MEL-2 = tested on: SK-MEL-2
# SK-MEL-5 = tested on: SK-MEL-5
# SK-OV-3 = tested on: SK-OV-3
# SN12C = tested on: SN12C
# SNB-19 = tested on: SNB-19
# SNB-75 = tested on: SNB-75
# SNB-78 = tested on: SNB-78
# SR = tested on: SR
# SW-620 = tested on: SW-620
# T47D = tested on: T47D
# TK-10 = tested on: TK-10
# U-251 = tested on: U-251
# UACC-257 = tested on: UACC-257
# UACC-62 = tested on: UACC-62
# UO-31 = tested on: UO-31
# XF498 = tested on: XF498
compound,measurement,setting,value
CCOC(=O)N1CCc2cc(OC)c(OC)c3c2c1cc1cc(OC)c(OC)cc13,GI50,786-0,2.53 µM (inactive)
same,GI50,A498,2.21 µM (inactive)
same,GI50,A549,1.7 µM (inactive)
same,GI50,ACHN,4.11 µM (inactive)
same,GI50,BT-549,0.577 µM (active)
same,GI50,CAKI-1,2.51 µM (inactive)
same,GI50,CCRF-CEM,4.26 µM (inactive)
same,GI50,COLO 205,0.787 µM (active)
same,GI50,DLD-1,1.3 µM (inactive)
same,GI50,DMS-114,1.55 µM (inactive)
same,GI50,DMS-273,0.667 µM (active)
same,GI50,DU-145,3.59 µM (inactive)
same,GI50,EKVX,8.97 µM (inactive)
same,GI50,HCC 2998,2.29 µM (inactive)
same,GI50,HCT-116,1.22 µM (inactive)
same,GI50,HCT-15,0.914 µM
same,GI50,HL-60,1.32 µM (inactive)
same,GI50,HOP-18,28.1 µM (inactive)
same,GI50,HOP-62,3.27 µM (inactive)
same,GI50,HOP-92,3.8 µM (inactive)
same,GI50,HT-29,0.492 µM (active)
same,GI50,Hs-578T,1.99 µM (inactive)
same,GI50,IGROV-1,4.57 µM (inactive)
same,GI50,K562,2.91 µM (inactive)
same,GI50,KM-20L2,1.36 µM (inactive)
same,GI50,KM12,0.695 µM (active)
same,GI50,LOX IMVI,2.28 µM (inactive)
same,GI50,LXFL 529,3.78 µM (inactive)
same,GI50,M14,4.29 µM (inactive)
same,GI50,M19-MEL,1.88 µM (inactive)
same,GI50,MCF7,1.1 µM (active)
same,GI50,MDA-MB-231,5.96 µM (inactive)
same,GI50,MDA-MB-435,0.393 µM (active)
same,GI50,MDA-N,0.127 µM (active)
same,GI50,MOLT-4,5.32 µM (inactive)
same,GI50,Malme-3M,3.5 µM (inactive)
same,GI50,NCI-H226,4.33 µM (inactive)
same,GI50,NCI-H23,3.95 µM (inactive)
same,GI50,NCI-H460,1.09 µM (active)
same,GI50,NCI-H522,0.618 µM (active)
same,GI50,NCI/ADR-RES,0.655 µM (active)
same,GI50,OVCAR-3,0.984 µM (active)
same,GI50,OVCAR-4,10.5 µM (inactive)
same,GI50,OVCAR-5,16.9 µM (inactive)
same,GI50,OVCAR-8,4.8 µM (inactive)
same,GI50,PC-3,1.54 µM (inactive)
same,GI50,RPMI-8226,3.76 µM (inactive)
same,GI50,RXF 393,2 µM (inactive)
same,GI50,RXF 631,2.42 µM (inactive)
same,GI50,SF-268,4.51 µM (inactive)
same,GI50,SF-295,0.927 µM (active)
same,GI50,SF-539,1.69 µM (inactive)
same,GI50,SK-MEL-28,4.19 µM (inactive)
same,GI50,SK-MEL-2,2.24 µM (inactive)
same,GI50,SK-MEL-5,0.499 µM (active)
same,GI50,SK-OV-3,2.56 µM (inactive)
same,GI50,SN12C,4.62 µM (inactive)
same,GI50,SNB-19,10.9 µM (inactive)
same,GI50,SNB-75,1.37 µM (inactive)
same,GI50,SNB-78,16.1 µM (inactive)
same,GI50,SR,0.807 µM (active)
same,GI50,SW-620,1.15 µM (inactive)
same,GI50,T47D,2.79 µM (inactive)
same,GI50,TK-10,7.98 µM (inactive)
same,GI50,U-251,2.7 µM (inactive)
same,GI50,UACC-257,12.1 µM (inactive)
same,GI50,UACC-62,0.94 µM (active)
same,GI50,UO-31,11.1 µM (inactive)
same,GI50,XF498,0.67 µM (active)
CN(C)C(=S)/N=c1\ss/c(=N\S(=O)(=O)c2ccccc2)n1-c1ccccc1,GI50,786-0,30.4 µM (inactive)
same,GI50,A498,50.9 µM (inactive)
same,GI50,A549,14.1 µM (inactive)
same,GI50,ACHN,24.2 µM (inactive)
same,GI50,CAKI-1,> 100 µM (inactive)
same,GI50,CCRF-CEM,0.333 µM (active)
same,GI50,DLD-1,13.5 µM (inactive)
same,GI50,DMS-114,2.08 µM (inactive)
same,GI50,DMS-273,12.9 µM (inactive)
same,GI50,EKVX,59.6 µM (inactive)
same,GI50,HCC 2998,38.8 µM (inactive)
same,GI50,HCT-15,7.28 µM
same,GI50,HL-60,4.33 µM (inactive)
same,GI50,HOP-18,32.6 µM (inactive)
same,GI50,HOP-62,22.9 µM (inactive)
same,GI50,HOP-92,14.7 µM (inactive)
same,GI50,HT-29,0.0522 µM (active)
same,GI50,IGROV-1,38 µM (inactive)
same,GI50,K562,0.953 µM (active)
same,GI50,KM12,0.217 µM (active)
same,GI50,LOX IMVI,4.06 µM (inactive)
same,GI50,LXFL 529,0.0481 µM (active)
same,GI50,M14,20.6 µM (inactive)
same,GI50,M19-MEL,19.4 µM (inactive)
same,GI50,MOLT-4,5.35 µM (inactive)
same,GI50,Malme-3M,30.1 µM (inactive)
same,GI50,NCI-H226,0.458 µM (active)
same,GI50,NCI-H23,16.1 µM (inactive)
same,GI50,NCI-H522,0.0855 µM (active)
same,GI50,OVCAR-3,6.4 µM (inactive)
same,GI50,OVCAR-4,0.185 µM (active)
same,GI50,OVCAR-5,> 100 µM (inactive)
same,GI50,OVCAR-8,23.7 µM (inactive)
same,GI50,RPMI-8226,0.344 µM (active)
same,GI50,RXF 393,57.5 µM (inactive)
same,GI50,RXF 631,> 100 µM (inactive)
same,GI50,SF-268,38.9 µM (inactive)
same,GI50,SF-295,20.3 µM (inactive)
same,GI50,SF-539,19.7 µM (inactive)
same,GI50,SK-MEL-28,63.7 µM (inactive)
same,GI50,SK-MEL-2,11.5 µM (inactive)
same,GI50,SK-MEL-5,0.0653 µM (active)
same,GI50,SK-OV-3,89.7 µM (inactive)
same,GI50,SN12C,33 µM (inactive)
same,GI50,SNB-75,> 100 µM (inactive)
same,GI50,SNB-78,29 µM (inactive)
same,GI50,SW-620,9.95 µM (inactive)
same,GI50,TK-10,40.1 µM (inactive)
same,GI50,U-251,27 µM (inactive)
same,GI50,UACC-257,16.9 µM (inactive)
same,GI50,UACC-62,0.297 µM (active)
same,GI50,UO-31,22 µM (inactive)
same,GI50,XF498,19.5 µM (inactive)
